# In patent US8129425B2, “Small organic molecule regulators of cell proliferation” (Curis, Inc., priority 2000, dated 2012):
# Experiments:
# [1] = test system: cerebellar neuron precursors; experiment: Cerebellar neuron precursor proliferation (3H-thymidine incorporation); type: cell-based, rat; conditions: for stimulation of 3H-thymidine incorporation: absence of Hh protein treatment
# Protocol: In order to test the efficacy of Hedgehog signaling agonists, the ability of the agonists to stimulate the proliferation of cerebellar neuron precursors was determined. Cerebellar granule neuron precursors are known to respond to Hh protein by proliferating. To test the agonists, cerebellar neurons were dissected out of postnatal (one week) rat brains, and placed into primary cell culture. Treatment agents were added once, on the first day of culture (0 DIV). Cells were left in culture until 2 DIV, when 3H-thymidine was added for 5 hours; the amount of incorporation by the cells of this 3H-thymidine provides a measure of the level of proliferation of the cells. Cells were then lysed, and the incorporation of 3H-thymidine was determined. The positive control was Hh protein, at 1.0 μg/ml final concentration. Hh protein alone caused approximately a 20-fold increase in 3H-thymidine incorporation, consistent with the known ability of Shh to stimulate proliferation of these cells. Non-Hh-protein-stimulated cells, including cells treated with control vehicle (DMSO), had very low levels of proliferation. […] At 5.0 μM, the p-cyanophenyl compound B caused 10.2-fold induction of 3H-thymidine incorporation. […] At 1.0, 0.3, or 0.1 μM, D caused 16-, 17-, or 13-fold induction, respectively, of 3H thymidine incorporation into the cells.
# [2] = test system: Gli-1; experiment: Quantitative RT-PCR (TaqMan) of Gli-1 transcript in C3H 10T1/2 cells; type: cell-based, Murine; conditions: compound concentration 8 μM
# Protocol: (§1) The compounds of FIGS. 32 and 33 were tested for their ability to activate transcription of two well-studied targets of the Hedgehog pathway: the transcription factor Gli-1, and the putative Hedgehog receptor component Ptc-1.
# (§2) Murine C3H 10T1/2 cells were seeded at approximately 200,000 cells per well in a 24-well plate in complete medium (10% FBS). After 24 hr, medium was removed and replaced with “starvation” medium (0.5% FBS) containing dilutions of compound or Hh protein. After 16-18 hr, total RNA was prepared using TriZol (Life Technologies, inc.).
# (§3) One-microgram aliquots of total RNA were used to prepare random hexamer-primed cDNA with […] Reverse transcriptase (Life Technologies, Inc.).
# (§4) To measure the relative levels of Gli-1 and Ptc-1 transcripts, TaqMan assays (PE Biosystems) were performed with an ABI Prism 7700 Sequence Detection System. As an internal control, GAPDH transcript levels were simultaneously measured in each reaction. Data were analyzed using Sequence Detector v 1.6.3 (Perkin Elmer).
# [3] = test system: Ptc-1; experiment: Quantitative RT-PCR (TaqMan) of Ptc-1 transcript in C3H 10T1/2 cells; type: cell-based, Murine; conditions: compound concentration 8 μM
# Protocol: as §1, §2, §3, §4
# [4] = test system: ptc-1 (d11) lacZ kidney explants; experiment: Kidney branching assay (ptc-1 lacZ kidney explants); type: cell-based, mouse; conditions: 5 μM, 48 hrs
# Protocol: (§5) E13.5 old ptc-1 (d11) lacZ […] were harvested and transgenic embryos identified by lacZ detection using tails. Explants were assembled on 1 μm polycarbonate filters (Costar) placed on top of plastic grids (histology embedding chamber) and placed in standard 12-well tissue culture plates filled with kidney explant culture medium (DMEM based, additives optimized for the culture of mouse […]) for 48 hrs, fixed in lacZ fixative, rinsed and stained for lacZ O/N at 37° C.
# [5] = test system: ptc-lacZ skin punches; experiment: Skin explants from ptc-lacZ pups (X-Gal stain); type: cell-based, mouse; conditions: cultured 6 days
# Protocol: Skin from ptc-lacZ E17.5 pups was excised with a 2 mm skin punch. Those skin punches were then cultured for 6 days in control media, or media including either agonist B or D or Hh protein, or media including both an agonist and Hh protein. The explants were then stained with X-Gal stain.
# [6] = test system: ptc-1 (d11) lacZ lungs; experiment: Lung branching assay (ptc-1 lacZ lung explants); type: cell-based, mouse; conditions: 5 μM, 48 hrs
# Protocol: as §5, with “E12.5” for “E13.5”, “lung” for “kidney”
# [7] = test system: hedgehog-responsive Gli-Luc reporter-construct; experiment: Gli-Luc hedgehog pathway reporter assay in [10T1/2(s12)] cells; type: cell-based, murine; conditions: Table 1
# Protocol: To measure the hedgehog agonist activity of compounds, we used [10T1/2(s12)] cells containing the hedgehog-responsive Gli-Luc reporter-construct. In each MTP (MicroTiter Plate; 96-well plate), 10,000-20,000 cells were plated per well, in full media (10% FBS). After about 24-48 hr, plates were switched to low-serum media (=0.5%. FBS). Subsequently, a test compound was added at 1-5 μM in the presence or absence of octyl-hedgehog (see below). After another 24 hr, the media from the MTPs was discarded and replaced with luciferase assay-mix, containing lysis-buffer with luciferase substrate. The plates were incubated at RT for about 15-30 min and read in a luminometer.
# Plates were incubated for 48 hr before switching to low-serum. Compounds were screened at 1-2 μM in the presence of Hh protein (0.01 μg/ml; EC30=about 30% of max-induced activity).
# Plates were incubated for 24 hr before switching to low-serum. Compounds were screened at 5 μM without adding Hh protein.
# From Screen A, we identified hits identified in FIGS. 32 and 33. The 1,4-diaminocyclohexane subunit of the compounds of FIG. 32 which include this moiety have the two amino substituents disposed in a trans-relationship, e.g., both substituents equatorial on the cyclohexane subunit. These hits were confirmed in Screen B. The data shown in FIGS. 34a and 34b essentially involved dosing the two compounds in both assays (Gli-Luc & SV-Luc).
# The data from the Gli-Luc assay is converted to percent activity where full activity with Hh protein is set at 100% (FIG. 35; Table 1). […] Furthermore, the compounds show a more striking induction in the presence of hedgehog (EC50=0.2-0.3 μM, ECmax=70-90% of max induced activity with Hh protein), indicating a synergy between the compounds and Hh protein, consistent with the compounds serving as agonists for the hedgehog pathway.
# [8] = test system: patched (ptc-lacZ β-galactosidase reporter); experiment: Ptc-lacZ reporter mice assay (X-gal staining of tissues); type: in vivo; conditions: agonist 15 mg/kg/injection 4X/day + dipal-Shh 1 mg/kg/injection 2X/day, four days from first day after birth
# Protocol: Mice with a β-galactosidase transgene (ptc-lacZ mice) under the regulatory control of the patched locus express the β-galactosidase protein in the same cells where the endogenous mouse patched gene is expressed. The β-galactosidase protein can thus be used as a faithful reporter of the expression of the endogenous patched gene.
# Ptc-lacZ mice were divided into four treatment groups and were treated with the following compounds or combinations of compounds for four days, beginning on the first day after birth (dipal-Shh=dipalmitoylated Sonic hedgehog):
# The vehicle for the agonist was 10% DMSO in PBS (pH 7.2). The agonist was injected from a 4.67 mM stock dissolved in the vehicle solution.
# 18 hours following the last injections, the mice were sacrificed and the following tissues were collected: skull, kidney, lung, scapula, skin and heart. All tissues were fixed in 0.2% glutaraldehyde, 5 mM EDTA (pH 8.0), 20 mM MgCl2, 100 mM Na2HPO4 for 30 minutes before staining in 1 mg/ml X-gal, 12.5 mM potassium ferrocyanide, 12.5 mM potassium ferricyanide, 2 mM MgCl2, 0.01% deoxycholate, 0.02% NP-40, and 100 mM Na2HPO4 for 30 hours. Tissues were judged for relative intensity and photographed.
# FIG. 42: Ptc-lacZ mice were divided into two treatment groups and were treated with the following compounds for three days, beginning on the first day after birth:
# The vehicle for the agonist was 10% DMSO in PBS (pH 7.2). The agonist was injected from a 1.0 mM stock dissolved in the vehicle solution.
# Eighteen hours following the last injections, the mice were sacrificed and the forelimbs were collected and processed as described above.
# In a third experiment, Ptc-lacZ mice were divided into five treatment groups and were treated with the following compounds for four days, beginning on the first day after birth:
# The vehicle for the agonist was 10% DMSO in PBS (pH 7.2). The agonist was injected from stocks of 0.3, 0.1 and 0.03 mM dissolved in the vehicle solution.
# [9] = test system: HEPM cells with a Gli-Luc construct; experiment: Gli-Luc reporter in human embryonic palatal mesenchyme (HEPM) cells; type: cell-based
# Description: FIGS. 47A and B compare the activity of subject compounds O and R in mouse reporter cells (TM3 cells with a Gli-Luc reporter construct, as described above) and in human reporter cells (human embryonic palatal mesenchyme (HEPM) cells with a Gli-Luc construct).
# [10] = test system: neural precursor cells (SVZ and SG); experiment: Neural precursor cell proliferation (BrdU) after oral administration in adult mouse; type: in vivo; conditions: 7 days BID, 10 mg/kg or 25 mg/kg
# Protocol: To test whether oral administration of the Hh agonist would affect proliferation of precursor cells, mice were dosed daily (once or twice/day, po) with either vehicle or the Hh agonist X″ for 1-7 days. On the appropriate day, mice were injected with BrdU (ip) and 2 hours later euthanized, perfused with fixative and brains processed for BrdU immunohistochemistry. The number of BrdU-IR cells was counted in both the SVZ and subgranular zone of the hippocampal dentate gyrus (SG).
# The data shown in FIGS. 57 and 58 are from a study in which mice were dosed orally for 7 days (BID) with either vehicle (n=4) or Hh agonist X″ (10 mg/kg, n=3 or 25 mg/kg, n=3). The day after the final dose, mice were injected with BrdU and 2 hrs. later brains were collected, processed, and analyzed as described above.
# [11] = test system: middle cerebral artery occlusion infarct; experiment: Mouse MCAO model of stroke; type: in vivo
# Protocol: In this animal model, a small suture is inserted into the common carotid artery and threaded directly into the circulatory system of the brain. The suture is placed such that it blocks blood flow though the middle cerebral artery (MCA occlusion), which is the primary source of blood to the forebrain. After a set period of time, here 90 min, the suture is removed and blood flow to the forebrain is restored (reperfusion). The temporary blockage of blood flow to the forebrain results in behavioral symptoms and brain pathology that mimic those seen in human stroke patients. In the brain, within 24 hr post-MCA occlusion an infarct is visible using a stain (TTC) that stains living tissue red and the infarcted area white. The infarct following a 90 min MCAO usually involves both cortical and subcortical brain regions. In this study, mice were treated for 3 days (1/day) prior to MCAO with either vehicle (0.5% methyl cellulose, 0.2% Tween-80/0.9% NaCl, n=12) or the Hh agonist X″ (20 mg/kg, po, n=11). Animals were then subjected to 90 min MCAO followed by reperfusion. Approximately 24 hr after the start of occlusion ([…] of reperfusion) mice were euthanized and the brain sectioned into 2 mm slabs. The brain slices were stained with TTC to show the infarcted area of the brain. The infarct area/total forebrain (% infarct) was analyzed by measured and statistically analyzed. Male mice (7-8 wks of age) were subjected to 90 min MCAO followed by reperfusion. Animals were then treated with either vehicle (n=11) or the Hh agonist X″ (20 mg/kg, po, n=12) at the onset of reperfusion (90 min post-occlusion). Twenty-four hours after the onset of MCAO mice were euthanized, the brain sectioned into 2 mm slabs and slices stained with TTC for infarct size analysis.
# [12] = test system: nigrostriatal pathway (striatal DA and TH); experiment: Mouse MPTP model of Parkinson's disease; type: in vivo; conditions: pretreatment 0.3, 1, 3, and 10 mg/kg po for 3 days before MPTP; seven days post-lesioning, vs vehicle
compound,measurement,setting,value
COc1ccc(CN(C(=O)c2sc3ccccc3c2Cl)C2CCC(N)CC2)cc1-c1cccc([N+](=O)[O-])c1 (centres unmarked) [A],stimulation of 3H-thymidine incorporation,[1],significantly stimulate 3H-thymidine incorporation
same,induction of Gli-1 relative to that obtained with the optimal concentration of Hh protein,[2],~40%
same,induction of Ptc-1 relative to that obtained with the optimal concentration of Hh protein,[3],~40%
COc1ccc(CN(C(=O)c2sc3ccccc3c2Cl)C2CCC(N)CC2)cc1-c1ccc(C#N)cc1 (centres unmarked) [B],induction of 3H-thymidine incorporation,"[1]; 5.0 μM, absence of Hh protein",10.2 fold
same,stimulation of 3H-thymidine incorporation,[1],significantly stimulate 3H-thymidine incorporation
same,induction of Gli-1 relative to that obtained with the optimal concentration of Hh protein,[2],approximately 60%
same,LacZ reporter gene expression in kidney explants,[4],significantly increased reporter gene expression and expansion of the expression domain of the transgene
same,induction of Ptc-1 relative to that obtained with the optimal concentration of Hh protein,[3],approximately 60%
same,X-Gal staining of skin explants,[5]; agonist alone,greater staining than culturing with a low dose of Hh protein alone
same,X-Gal staining of skin explants,[5]; agonist and a low dose of Hh protein,staining similar to that of a substantially higher dose of Hh protein
same,LacZ reporter gene expression in lung explants,[6],significantly increased reporter gene expression and expansion of the expression domain of the transgene
same,EC50,[7],< 10 µM
same,upregulation of hedgehog pathway (β-galactosidase staining),[8],clearly capable of upregulating the hedgehog pathway in vivo
CNC1CCC(N(Cc2ccc(-c3cccnc3)o2)C(=O)c2sc3ccccc3c2Cl)CC1 (centres unmarked) [R],activation of Gli-Luc reporter cell line,[9],activation of the reporter cell line
same,EC50,[7],< 1 µM
CN[C@H]1CC[C@H](N(Cc2ccc(OC)c(-c3ccc(C#N)cc3)c2)C(=O)c2sc3c(F)ccc(F)c3c2Cl)CC1 [X′′],number of proliferating cells in the SG of the dentate gyrus,[10],increased the number of proliferating cells in the SG of the dentate gyrus
same,number of BrdU labeled cells in the SVZ,[10]; p<0.05,increased the number of BrdU labeled cells in the SVZ
same,cortical and subcortical lesion size,[11]; post-MCAO treatment 20 mg/kg po at onset of reperfusion,dramatically reduced both cortical and subcortical lesion size
same,size of the infarct,"[11]; post-MCAO treatment 20 mg/kg po at onset of reperfusion, p<0.05",significantly decreased the size of the infarct
same,cortical infarct size,"[11]; pre-MCAO treatment 20 mg/kg po 1/day for 3 days, p=0.052",marked reduction in cortical infarct size
same,total infarct size,"[11]; pre-MCAO treatment 20 mg/kg po 1/day for 3 days, p=0.057",dramatically reduced
same,attenuation of damage to the nigrostriatal pathway (striatal DA and TH activity),[12],~260%
same,EC50,[7],< 0.005 µM
